Laboratory results taken from paper PMC8992272, “Stabilities of Three Key Biological Trisulfides with Implications for Their Roles in the Release of Hydrogen Sulfide and Bioaccumulation of Sulfane Sulfur” (ACS Omega, 2022).
Where two headings read alike, the source gives them in different places. Each block holds one compound with its values, some of them ahead of it.

Key:
[1] = Stability in water/D2O buffered at different pH values, tracked by 1H NMR; type: physicochemical; settings: for half-life: buffered water/D2O, read-out: estimated half-life (converted); for degradation: pH 5.8, 9 days
From the text: The ^1H NMR spectra of NAC and the disulfide, trisulfide, and tetrasulfide of NAC had peaks at unique values for chemical shifts and allowed for their easy characterization (Figure 3). Pure chemicals of each sulfide were synthesized and characterized by ^1H and ^13C NMR spectroscopy as well as by high-resolution mass spectroscopy. The unique chemical shifts of the peaks for the Ha and Hb/Hc protons on the sulfides allowed the integration of each sulfide to be determined.
The stability of NAC trisulfide in water buffered at pH values of 5.8, 7.4, and 9.0 was measured.
The stability of cysteine trisulfide was investigated in buffered water at pH values of 5.8, 7.0, and 9.0. […] At pH values of 5.8, 7.0, and 9.0, the cysteine trisulfide was soluble and its ^1H NMR spectra were obtained.
The stability of glutathione trisulfide was investigated at pH values of 5.8, 7.4, and 9.0 (Figure S14a). The degradation of glutathione trisulfide was more rapid at pH values of 5.8 and 7.4 than that of the trisulfides of NAC and cysteine. At an acidic pH of 5.8, 71% of glutathione trisulfide degraded after 10 days. At pH values of 7.4 and 9.0, glutathione trisulfide degraded 79 and 81%, respectively, at day 9. […] The degradation of glutathione trisulfide reached an equilibrium of approximately 20% with the disulfide due to the reaction catalyzed by amine with elemental sulfur. Rate constants and half-lives were obtained for the degradation of glutathione trisulfide at each pH value using early data points unaffected by the equilibrium. At pH values of 5.8, 7.4, and 9.0, the estimated half-lives were 6.3 days (151 h), 0.90 days (21.6 h), and 0.79 days (19.0 h), respectively (Figure S14b).
The stability of NAC tetrasulfide was investigated in D2O buffered at pH values of 5.8, 7.4, and 9.0 (Figure S16a). At a pH of 5.8, NAC tetrasulfide degraded by 13% after 9 days. At pH values of 7.4 and 9.0, the tetrasulfide degraded by 55 and 52%, respectively, after 9 days. At each pH, the degradation product was NAC trisulfide, elemental sulfur, and a small amount of NAC disulfide (<3%). […] Estimated rate constants and half-lives for the degradation of NAC tetrasulfide at each pH were obtained. At pH values of 5.8, 7.4, and 9.0, the estimated half-lives were 53.3, 7.5, and 8.2 days, respectively (Figure S16b).

[2] = Stability in D2O in the presence of butylamine or triethylamine, tracked by 1H NMR; type: physicochemical; settings: for tetrasulfide present: butylamine and triethylamine; for degraded: after 1 day
Experimental: N-Acetylcysteine trisulfide (26.5 mg, 66 μmol) was dissolved in 600 μL of D2O. Butylamine (5.0 mg, 68 μmol) was added, and the ^1H NMR spectra were taken periodically to track degradation.
N-Acetylcysteine trisulfide (26.5 mg, 66 μmol) was dissolved in 600 μL of D2O. Triethylamine (8.0 mg, 79 μmol) was added, and the ^1H NMR spectra were taken periodically to track degradation.
Cysteine trisulfide (5.5 mg, 20 μmol) was added to 600 μL of D2O. The solution was filtered to remove undissolved particles. […] The ^1H NMR spectra were taken periodically to track degradation.
Cysteine trisulfide (4.3 mg, 16 μmol) was added to 600 μL of D2O. The solution was filtered to remove undissolved particles. […] The ^1H NMR spectra were taken periodically to track degradation.
N-Acetylcysteine tetrasulfide (17.2 mg, 44 μmol) was dissolved in 600 μL of D2O. Butylamine (9.9 mg, 135 μmol) was added, and the ^1H NMR spectra were taken periodically to track degradation.
N-Acetylcysteine tetrasulfide (17.2 mg, 44 μmol) was dissolved in 600 μL of D2O. Triethylamine (13.5 mg, 135 μmol) was added, and the ^1H NMR spectra were taken periodically to track degradation.

[3] = Stability in nonbuffered D2O at room and elevated temperature (1H NMR); type: physicochemical; settings: nonbuffered D2O
Experimental: N-Acetylcysteine trisulfide (24.3 mg, 61 μmol) was dissolved in 500 μL of D2O and placed in a 40 °C oil bath. The ^1H NMR spectra were taken periodically to track degradation.
N-Acetylcysteine trisulfide (24.3 mg, 61 μmol) was dissolved in 500 μL of D2O and placed in a 60 °C oil bath. The ^1H NMR spectra were taken periodically to track degradation.
N-Acetylcysteine tetrasulfide (8.0 mg, 21 μmol) was dissolved in 600 μL of D2O. The ^1H NMR spectra were taken periodically to track degradation.
N-Acetylcysteine tetrasulfide (10.0 mg, 26 μmol) was dissolved in 600 μL of D2O and placed in a 40 °C oil bath. The ^1H NMR spectra were taken periodically to track degradation.

[4] = cited from earlier work
[5] = no reference given, cited from earlier work
[6] = Stability in the presence of acetonitrile, benzamide, zinc sulfate or iron sulfate, or in methanol-d4 (1H NMR); type: physicochemical; settings: 3:1 mole ratio acetonitrile or benzamide, D2O, after 12 days
Experimental: N-Acetylcysteine trisulfide (26.5 mg, 66 μmol) was dissolved in 600 μL of D2O. Acetonitrile (3.0 mg, 73 μmol) was added, and the ^1H NMR spectra were taken periodically to track degradation.
N-Acetylcysteine trisulfide (31.4 mg, 78 μmol) was dissolved in 600 μL of D2O. Benzamide (9.4 mg, 78 μmol) was added, and the ^1H NMR spectra were taken periodically to track degradation.
N-Acetylcysteine trisulfide (15.0 mg, 38 μmol) was dissolved in 600 μL of D2O. ZnSO4 (11.8 mg, 73 μmol) was added, and the ^1H NMR spectra were taken periodically to track degradation.
N-Acetylcysteine trisulfide (15.0 mg, 38 μmol) was dissolved in 600 μL of D2O. FeSO4·7H2O (11.6 mg, 41 μmol) was added, and the ^1H NMR spectra were taken periodically to track degradation.
N-Acetylcysteine trisulfide (32.1 mg, 80 μmol) was dissolved in 600 μL of CD3OD. The ^1H NMR spectra were taken periodically to track degradation.
Cysteine trisulfide (5.1 mg, 19 μmol) was added to 600 μL of D2O. Solution was filtered to remove undissolved particles. […] The ^1H NMR spectra were taken periodically to track degradation.
Cysteine trisulfide (6.8 mg, 25 μmol) was added to 600 μL of D2O. Solution was filtered to remove undissolved particles. […] The ^1H NMR spectra were taken periodically to track degradation.

[7] = Solubility observations; type: physicochemical
[8] = Equilibrium between di-, tri- and tetrasulfides in the presence of elemental sulfur (1H NMR); type: physicochemical; settings: D2O with elemental sulfur and butylamine, after 4 days
Experimental: To test this hypothesis, a reaction was completed in D2O with elemental sulfur, NAC disulfide, and butylamine.
To understand why the degradation leveled off, NAC trisulfide was dissolved in water, elemental sulfur was added, and the contents were heated to 40 °C.
N-Acetylcysteine disulfide (9.3 mg, 23 μmol) was dissolved in 600 μL of D2O. Elemental sulfur (6.8 mg, 0.21 mmol) and butylamine (18.5 mg, 0.25 mmol) were added, and the ^1H NMR spectra were periodically obtained to track the equilibrium.

half-life ([1]; pH 5.8, pH 5.8): 1280 h
half-life ([1]; pH 7.4, pH 7.4): 180 h
half-life ([1]; pH 9, pH 9.0): 197 h
degradation [1]: 13%
degraded ([1]; pH 7.4, day 9): 55%
degraded ([1]; pH 9.0, day 9): 52%
half-life at 73 mM ([2]; D2O with butylamine or triethylamine, in the presence of butylamine and triethylamine (both amines), read-out: upper limit of the half-life): ≤ 1.6 min
half-life ([2]; D2O with butylamine, in the presence of butylamine (abstract), read-out: half-life): ≤ 0.025 h
tetrasulfide present ([2]; after 5 min): less than 10%
tetrasulfide present ([2]; after a day): 4%
estimated rate constant ([3]; 40 °C): 8.7 × 10^–2 days^–1
degraded ([3]; 40 °C, after 20 days): 83%
degradation ([3]; 40 °C, after 63 days): 83%
half-life at 43 mM ([3]; 40 °C, read-out: estimated half-life (converted)): 192 h
estimated rate constant ([3]; room temperature): 3.9 × 10^–2 days^–1
degraded ([3]; room temperature, after 35 days): 69%
half-life at 35 mM ([3]; room temperature, read-out: estimated half-life (converted)): 427 h
Structure (SMILES): CC(=O)NC(CSSSSCC(NC(C)=O)C(=O)O)C(=O)O (centres unmarked) [NAC tetrasulfide, N-Acetylcysteine Tetrasulfide]
stability ([4]; in the presence of thiols, released H2S): unstable

Structure (SMILES): S [H2S, hydrogen sulfide]
pKa [5]: 7.0

stability ([1]; basic conditions (abstract)): unstable
half-life ([1]; pH 7, pH 7.0): 406 h
half-life ([1]; pH 9, pH 9.0): 274 h
degradation [1]: < 3%
degraded ([1]; pH 7.0, after 13 days): 40%
degraded ([1]; pH 9.0, after 13 days): 56%
half-life ([2]; D2O with butylamine, in the presence of butylamine, D2O, early data points, read-out: estimated half-life of degradation (converted)): 2.3 h
half-life ([2]; D2O with triethylamine, in the presence of triethylamine, D2O, early data points, read-out: estimated half-life of degradation (converted)): 2.9 h
trisulfide remaining (degradation leveled off) ([2]; after 10 days in the presence of butylamine and triethylamine, D2O): approximately 20%
degraded ([2]; in the presence of butylamine, D2O): 63%
degraded ([2]; in the presence of triethylamine, D2O): 78%
degradation [6]: no observable degradation
solubility ([7]; buffered water pH 5.8, 7.0 and 9.0): soluble
solubility ([7]; buffered water pH 7.4): poorly soluble
Structure (SMILES): N[C@@H](CSSSC[C@H](N)C(=O)O)C(=O)O [cysteine trisulfide, Cysteine Trisulfide]

Structure (SMILES): C=CCSSSCC=C [DATS, diallyl trisulfide]
degradation ([4]; in the presence of glutathione (GSH)): degraded rapidly
stability ([4]; micellar solution (propylene glycol, ethanol, Tween 80, water), pH 2.6 to 7.0, 15 min, HPLC): stable
stability ([4]; neat, 4 °C, after 3 months, HPLC): stable
degraded ([4]; neat, 35 °C, after 3 months, HPLC): 30%
degraded ([4]; neat, room temperature, after 3 months, HPLC): 11%
stability ([4]; same micellar solution, in the presence of antioxidants): not stable

Structure (SMILES): CSSSC [DMTS, dimethyl trisulfide]
degradation ([4]; neat, 4 and 22 °C, over 1 year): no degradation
degraded ([4]; neat, 34 °C, over 1 year): 70%

converted to trisulfide [8]: 15%
Structure (SMILES): CC(=O)N[C@@H](CSSC[C@H](NC(C)=O)C(=O)O)C(=O)O [NAC disulfide, N-Acetylcysteine disulfide, reference compound]

Structure (SMILES): N[C@@H](CCC(=O)N[C@@H](CS)C(=O)NCC(=O)O)C(=O)O [glutathione]
pKa ([5]; ammonium group): 9.6

Structure (SMILES): N[C@@H](CS)C(=O)O [cysteine]
pKa ([5]; ammonium group): 10.8
